{"source": "patent US20200085789A1", "about": "“USE OF A PROTEASOME INHIBITOR FOR THE TREATMENT OF CENTRAL NERVOUS SYSTEM (CNS) CANCERS” (Celgene International II Sàrl, priority 2017, published 2020)", "key": {"[1]": {"test_system": "WHO Grade IV malignant glioma", "experiment": "Tumor response by RANO criteria, MRZ ± BEV in recurrent grade IV malignant glioma patients", "type": "in vivo, human", "settings": "for Best Response CR (0), patients / Best Response PD (19), patients / Best Response PR (1), patients / Best Response SD (8), patients: Monotherapy ITT; for SPD: Monotherapy", "experimental": "(§1) Tumor response was measured every other cycle by RANO criteria.\n(§2) The drugs were infused on 28-Day Cycles. Tumor response is assessed every other cycle by RANO criteria.\nAssessment will include MRI scans at the end of every even numbered cycle (±7 days) using RANO 2010 criteria for assessment."}, "[2]": {"experiment": "Marizomib blood pharmacokinetics (Part 1 Phase 1)", "settings": "for AUC(0-t) / Cmax / Tmax / Vd / half-life: human, whole blood, intravenous", "experimental": "Blood samples will be taken for peak and trough measurements, pre-dose and immediately prior to (end of infusion) EOI, on Cycle 1 Day 1. On Cycle 1 Day 15 full PK sampling will be done: pre-dose, immediately prior to EOI and then 2, 5, 15, 30, 45, 60, 90 and 120 minutes post infusion. The following PK parameters will be estimated by non-compartmental analysis:\nNon-compartmental analyses will be performed. […] Blood concentrations and computed PK parameters for MRZ will be listed and summarized by cohort (mean, geometric mean, standard deviation, coefficient of variation, minimum, maximum and number of observations).\nBlood should be drawn from the contralateral arm to the infusion site and using an indwelling catheter to avoid multiple needle sticks is recommended. Sample collection time should be recorded on the tube label and Case Report Form (CRF) as day: hour: minute. Nominal time of blood collection are given as “time points”; it is critical that an accurately collected actual time of the sample is written on the CRF and on the blood tubes (date entered as dd:mm:yyyy; time entered using a 24-hour clock, hh:mm). For MRZ samples will be obtained before treatment and just prior to end of infusion on Cycle 1 Day 1. On Cycle 1 Day 15, MRZ blood samples will be obtained before treatment, just prior to end of infusion, and 2, 5, 15, 30, 45, 60, 90, and 120 minutes after the infusion. Every effort should be made to collect samples at the prescribed times, but deviations up to 10% of the time point are allowed. Additional samples may be collected if the subject experiences a potentially drug-related SAE. After blood collection, neutralizing solution must be added. Use Sponsor-provided PK kits. Process, store and ship samples per instructions in Study Reference Manual.\nNon-compartmental analyses will be performed."}, "[3]": {"test_system": "human glioblastoma (GBM) cell lines", "settings": "either of two GBM lines; cited from earlier work"}, "[4]": {"test_system": "WHO Grade IV malignant glioma", "experiment": "Progression free survival (PFS) and overall survival (OS), MRZ ± BEV in recurrent grade IV malignant glioma patients", "type": "in vivo, human", "experimental": "as §1, §2\nTumor response, including PD activity, progression-free survival (PFS), and overall survival (OS) will be assessed. Tumor response will be assessed by the Investigators using RANO 2010 criteria. […] Endpoints of response based on tumor assessments will be calculated for subjects who received at least 3 doses of MRZ and had at least 1 post-dose tumor evaluation.\nTumor response including PD, progression-free survival (PFS), and overall survival (OS) will be assessed by the Investigators using RANO 2010 criteria."}, "[5]": {"settings": "Phase 2 monotherapy, of 30 patients"}}, "data": [{"compound": "C[C@@]12OC(=O)[C@]1([C@@H](O)[C@@H]1C=CCCC1)NC(=O)[C@@H]2CCCl", "note": "[MRZ, marizomib]", "values": [{"measurement": "Best Response CR (0), patients", "setting": "[1]; Methylated N = 7", "result": 0}, {"measurement": "Best Response PD (19), patients", "setting": "[1]; Methylated N = 7", "result": 4}, {"measurement": "Best Response PR (1), patients", "setting": "[1]; Methylated N = 7", "result": 0}, {"measurement": "Best Response SD (8), patients", "setting": "[1]; Methylated N = 7", "result": 3}, {"measurement": "Best Response CR (0), patients", "setting": "[1]; Unknown N = 5", "result": 0}, {"measurement": "Best Response PD (19), patients", "setting": "[1]; Unknown N = 5", "result": 3}, {"measurement": "Best Response PR (1), patients", "setting": "[1]; Unknown N = 5", "result": 0}, {"measurement": "Best Response SD (8), patients", "setting": "[1]; Unknown N = 5", "result": 1}, {"measurement": "Best Response CR (0), patients", "setting": "[1]; Unmethylated N = 18", "result": 0}, {"measurement": "Best Response PD (19), patients", "setting": "[1]; Unmethylated N = 18", "result": 12}, {"measurement": "Best Response PR (1), patients", "setting": "[1]; Unmethylated N = 18", "result": 1}, {"measurement": "Best Response SD (8), patients", "setting": "[1]; Unmethylated N = 18", "result": 4}, {"measurement": "SPD", "setting": "[1]; Pt 0511, Screening SPD 703.47", "result": 231.3}, {"measurement": "SPD", "setting": "[1]; Pt 0515, Screening SPD 199.6", "result": 259.5}, {"measurement": "SPD", "setting": "[1]; Pt 0521, Screening SPD 836.44", "result": 832.82}, {"measurement": "overall response rate", "setting": "[1]; Phase 2 monotherapy 0.8 mg/m^2, 30 patients", "result": 3, "unit": "%"}, {"measurement": "partial response, patients", "setting": "[1]; [5]", "result": 1}, {"measurement": "progressive disease, patients", "setting": "[1]; [5]", "result": 19}, {"measurement": "disease course in most patients", "setting": "[1]; marizomib alone", "result": "rapid progression"}, {"measurement": "CLobs", "setting": "[2]; MRZ 0.7 mg/m^2, C1D8", "result": "272 ± 166 (3) L/hr"}, {"measurement": "CLobs", "setting": "[2]; MRZ 0.8 mg/m^2, C1D8", "result": "304 ± 85.0 (3) L/hr"}, {"measurement": "pharmacokinetic parameters", "setting": "[2]; co-administration with bevacizumab", "result": "consistent with published parameters and not affected by co-administration"}, {"measurement": "AUC(0-t)", "setting": "[2]; 0.7 mg/m2", "result": 3.22, "unit": "ng·h/mL"}, {"measurement": "Cmax", "setting": "[2]; 0.7 mg/m2", "result": "64.9 ± 1.73", "unit": "ng/mL"}, {"measurement": "Tmax", "setting": "[2]; 0.7 mg/m2", "result": 21.3, "unit": "min"}, {"measurement": "Vd", "setting": "[2]; 0.7 mg/m2", "result": "48.3 ± 16.1", "unit": "L"}, {"measurement": "half-life", "setting": "[2]; 0.7 mg/m2", "result": "16 ± 8.08", "unit": "min"}, {"measurement": "AUC(0-t)", "setting": "[2]; 0.8 mg/m2", "result": 6.53, "unit": "ng·h/mL"}, {"measurement": "Cmax", "setting": "[2]; 0.8 mg/m2", "result": "26.5 ± 7.92", "unit": "ng/mL"}, {"measurement": "Tmax", "setting": "[2]; 0.8 mg/m2", "result": 8, "unit": "min"}, {"measurement": "Vd", "setting": "[2]; 0.8 mg/m2", "result": "55 ± 19.7", "unit": "L"}, {"measurement": "half-life", "setting": "[2]; 0.8 mg/m2", "result": "7.27 ± 0.423", "unit": "min"}, {"measurement": "Tmax", "setting": "[2]; […]2", "result": 15.5, "unit": "min"}, {"measurement": "Vd", "setting": "[2]; […]2", "result": "54.4 ± 10.6", "unit": "L"}, {"measurement": "half-life", "setting": "[2]; […]2", "result": "8.2 ± 0.8", "unit": "min"}, {"measurement": "decrease of matrix invasion", "setting": "[3]", "result": "approximately 90%"}, {"measurement": "PFS Median", "setting": "[4]; All Patients", "result": 1.8}, {"measurement": "6 mo Overall Survival", "setting": "[4]; All Pts", "result": 64, "unit": "%"}, {"measurement": "9 mo Overall Survival", "setting": "[4]; All Pts", "result": 64, "unit": "%"}, {"measurement": "6 mo Overall Survival", "setting": "[4]; Methylated MGMT Promoter", "result": 83, "unit": "%"}, {"measurement": "9 mo Overall Survival", "setting": "[4]; Methylated MGMT Promoter", "result": 83, "unit": "%"}, {"measurement": "PFS Median", "setting": "[4]; Methylated MGMT Promoter", "result": 1.7}, {"measurement": "OS 6 mo", "setting": "[4]; Monotherapy, Methylated (7)", "result": 83, "unit": "%"}, {"measurement": "OS 9 mo", "setting": "[4]; Monotherapy, Methylated (7)", "result": 83, "unit": "%"}, {"measurement": "OS Median", "setting": "[4]; Monotherapy, Methylated (7)", "result": "Undefined"}, {"measurement": "PFS 3 mo", "setting": "[4]; Monotherapy, Methylated (7)", "result": 40, "unit": "%"}, {"measurement": "PFS Median", "setting": "[4]; Monotherapy, Methylated (7)", "result": 1.7, "unit": "months"}, {"measurement": "OS 6 mo", "setting": "[4]; Monotherapy, Unmethylated (18)", "result": 65, "unit": "%"}, {"measurement": "OS 9 mo", "setting": "[4]; Monotherapy, Unmethylated (18)", "result": 65, "unit": "%"}, {"measurement": "OS Median", "setting": "[4]; Monotherapy, Unmethylated (18)", "result": "Undefined"}, {"measurement": "PFS 3 mo", "setting": "[4]; Monotherapy, Unmethylated (18)", "result": 20, "unit": "%"}, {"measurement": "PFS Median", "setting": "[4]; Monotherapy, Unmethylated (18)", "result": 1.9, "unit": "months"}, {"measurement": "median overall survival", "setting": "[4]; Part II monotherapy, 16 events, median follow-up 9.2 months", "result": 11.4, "unit": "months"}, {"measurement": "OS 6 mo %", "setting": "[4]; Part II, N = 30, 14 censored", "result": 59, "unit": "%"}, {"measurement": "OS 9 mo %", "setting": "[4]; Part II, N = 30, 14 censored", "result": 54, "unit": "%"}, {"measurement": "OS 12 mo %", "setting": "[4]; Part II, N = 30, 14 censored", "result": 17, "unit": "%"}, {"measurement": "6 mo Overall Survival", "setting": "[4]; Unmethylated MGMT Promoter", "result": 65, "unit": "%"}, {"measurement": "9 mo Overall Survival", "setting": "[4]; Unmethylated MGMT Promoter", "result": 65, "unit": "%"}, {"measurement": "PFS Median", "setting": "[4]; Unmethylated MGMT Promoter", "result": 1.9}]}]}
